Tests used:
[1] = log P by HPLC on reversed-phase column (C18), EEC directive 79/831 Annex V.A8; format: physicochemical; conditions: for log p: HPLC reversed-phase C18, 43° C., data refer to the E isomer
Protocol: The log P values reported in the tables and Preparation Examples above were determined in accordance with EEC directive 79/831 Annex V.A8 by HPLC (High Performance Liquid Chromatography) using a reversed-phase column (C18). Temperature 43° C. The calibration is effected with unbranched alkan-2-ones (having 3 to 16 carbon atoms), for which the log P values are known.

[2] = system: Phaedon cochleariae; assay: Phaedon cochleariae - spray test (PHAECO); format: in vivo; conditions: application rate 100 g/ha, Chinese cabbage leaf disks
Protocol: Phaedon cochleariae—Spray Test (PHAECO)
(§1) Solvent: 78.0 parts by weight of acetone • • 1.5 parts by weight of dimethylformamide
(§2) Emulsifier: 0.5 parts by weight of alkylaryl polyglycol ether
(§3) To produce a suitable active compound preparation, 1 part by weight of active compound is mixed with the stated amounts of solvent and emulsifier, and the concentrate is diluted with emulsifier-containing water to the desired concentration.
After the desired period of time, the efficacy in % is determined. 100% means that all the beetle larvae have been killed; 0% means that no beetle larvae have been killed.

[3] = system: Myzus persicae; assay: Myzus persicae - spray test (MYZUPE); format: in vivo; conditions: application rate 100 g/ha, Chinese cabbage leaf disks
Method in brief: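 Chinese cabbage leaf disks carrying all stages of green peach aphid were sprayed with compound in acetone/DMF with emulsifier, diluted in water. After the chosen period, efficacy was scored as % aphids killed.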

[4] = system: Tetranychus urticae; assay: Tetranychus urticae - spray test, OP-resistant (TETRUR); format: in vivo; conditions: application rate 100 g/ha, bean leaf disks
Protocol: Tetranychus urticae—Spray Test, OP-Resistant (TETRUR)
as §1, §2, §3
Disks of bean leaves (Phaseolus vulgaris) infested with all stages of the greenhouse red spider mite (Tetranychus urticae) are sprayed with an active compound preparation of the desired concentration.
After the desired period of time, the efficacy in % is determined. 100% means that all the spider mites have been killed; 0% means that none of the spider mites have been killed.

[5] = system: Spodoptera frugiperda; assay: Spodoptera frugiperda - spray test (SPODFR); format: in vivo; conditions: application rate 100 g/ha, maize leaf disks
Method in brief: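 Maize leaf disks sprayed with compound in acetone/DMF with alkylaryl polyglycol ether emulsifier, diluted in water to test concentration, then infested with armyworm caterpillars once dry. Efficacy given as % caterpillars killed (100% all, 0% none) after the chosen period.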

[6] = system: Lucilia cuprina; assay: Lucilia cuprina test (LUCICU); format: in vivo; conditions: application rate 100 ppm
Protocol: Lucilia cuprina-Test (LUCICU)
(§4) Solvent: dimethyl sulfoxide
(§5) To produce a suitable preparation of active compound, 10 mg of active compound are mixed with 0.5 ml of dimethyl sulfoxide, and the concentrate is diluted with water to the desired concentration.
About 20 L1 larvae of the Australian sheep blowfly (Lucilia cuprina) are transferred into a test vessel containing minced horsemeat and the active compound preparation of the desired concentration.
After the desired time, the kill in % is determined. 100% means that all the larvae have been killed; 0% means that no larvae have been killed.

[7] = system: Boophilus microplus; assay: Boophilus microplus - injection test (BOOPMI Inj); format: in vivo; conditions: application rate 20 μg/animal, injection into engorged adult female cattle ticks
Protocol: Boophilus microplus—Injection Test (BOOPMI Inj)
as §4
To produce a suitable preparation of active compound, 10 mg of active compound are mixed with 0.5 ml of solvent and the concentrate is diluted with solvent to the desired concentration.
1 μl of the active compound solution is injected into the abdomen of 5 engorged adult female cattle ticks (Boophilus microplus). The animals are transferred into dishes and kept in a climate-controlled room.
The activity is assessed after the desired time by laying of fertile eggs. Eggs which are not visibly fertile are stored in a climate-controlled cabinet until the larvae hatch after about 42 days. An efficacy of 100% means that none of the ticks has laid any fertile eggs; 0% means that all the eggs are fertile.

[8] = system: Musca domestica; assay: Musca domestica test (MUSCDO); format: in vivo; conditions: application rate 20 ppm
Protocol: Musca domestica-Test (MUSCDO)
as §4, §5
Vessels containing a sponge treated with sugar solution and the active compound preparation of the desired concentration are populated with 10 adult houseflies (Musca domestica).
After the desired time, the kill in % is determined. 100% means that all of the flies have been killed; 0% means that none of the flies have been killed.

SMILES | chromatographic logP ([1]; log P) | chromatographic logP ([1]; log p) | efficacy (beetle larvae killed) [2] [%] | efficacy (aphids killed) [3] [%] | efficacy (spider mites killed) [4] [%] | efficacy (caterpillars killed) [5] [%] | efficacy (kill of L1 larvae) [6] [%] | log p ([1]; Table A) | efficacy (no fertile eggs laid) [7] [%] | log p ([1]; Table B) | log p ([1]; Table C) | efficacy (kill of adult houseflies) [8] [%]
CO/N=C/c1cc(C)c(NC(=O)c2cc(OC(F)F)nn2-c2ncccc2Cl)c(C(=O)NNC(=O)OC)c1 [A-02, Methyl 2-{2-({[1-(3-chloropyridin-2-yl)-3-(difluoromethoxy)-1H-pyrazol-5-yl]carbonyl}amino)-5-[(E)-(methoxyimino)methyl]-3-methylbenzoyl}hydrazinecarboxylate] | 2.28 | 2.38 | 100 | 90 | 90 | 100 | – | – | – | – | – | –
CON=Cc1cc(C)c(NC(=O)c2cc(C(F)(F)F)nn2-c2ncccc2Cl)c(C(=O)NNC(=O)OC)c1 [A-04] | – | – | 100 | 100 | – | 100 | 100 | 2.65 | 100 | – | – | –
CON=Cc1cc(C)c(NC(=O)c2cc(Br)nn2-c2ncccc2Cl)c(C(=O)NC2(C)CSC2)c1 (mixture of isomers) [B-01] | – | – | 100 | 90 | 100 | 100 | – | – | – | 3.22 | – | –
CON=Cc1cc(C)c(NC(=O)c2cc(C(F)F)nn2-c2ncccc2Cl)c(C(=O)NC2CC2)c1 [C-34] | – | – | 100 | 100 | – | 100 | 100 | – | 100 | – | 2.72 | –
CON=Cc1cc(C)c(NC(=O)c2cc(C(F)(F)F)nn2-c2ncccc2Cl)c(C(=O)N(C)NC(=O)Oc2ccccc2)c1 [A-26] | – | – | – | – | 90 | 100 | – | 3.72 | – | – | – | –
CON=Cc1cc(C)c(NC(=O)c2cc(C(F)(F)F)nn2-c2ncccc2Cl)c(C(=O)NN(C)C(=O)OC)c1 (mixture of isomers) [A-46] | – | – | 100 | 90 | 100 | 100 | – | 2.85 | – | – | – | –
CCNC(=O)c1cc(C=NOC)cc(C)c1NC(=O)c1cc(OCC(F)F)nn1-c1ncccc1Cl [C-46] | – | – | – | 100 | – | 100 | 100 | – | 100 | – | 2.81 | –
CON=Cc1cc(C)c(NC(=O)c2cc(OCC(F)F)nn2-c2ncccc2Cl)c(C(=O)NC(C)C)c1 [C-19] | – | – | – | 90 | – | 100 | 100 | – | 100 | – | 3.07 | 80
CO/N=C/c1cc(C)c(NC(=O)c2cc(OCC(F)F)nn2-c2ncccc2Cl)c(C(=O)NN(C)C(=O)OC)c1 [A-01, Methyl 2-{2-({[1-(3-chloropyridin-2-yl)-3-(2,2-difluoroethoxy)-1H-pyrazol-5-yl]carbonyl}amino)-5-[(E)-(methoxyimino)methyl]-3-methylbenzoyl}-1-methylhydrazinecarboxylate] | 2.58 | 2.58 | 100 | 90 | 90 | 100 | – | – | – | – | – | –
CON=Cc1cc(C)c(NC(=O)c2cc(OC)nn2-c2ncccc2Cl)c(C(=O)NN(C)C(=O)OC)c1 (mixture of isomers) [A-43] | – | – | 100 | 100 | 100 | 100 | – | 2.19 | – | – | – | –
CNC(=O)c1cc(C=NOC)cc(C)c1NC(=O)c1cc(OCC(F)F)nn1-c1ncccc1Cl [C-20] | – | – | 83 | 90 | – | 100 | 100 | – | 100 | – | 2.57 | –
CON=Cc1cc(C)c(NC(=O)c2cc(C(F)(F)F)nn2-c2ncccc2Cl)c(C(=O)NC2COC2)c1 (mixture of isomers) [B-02] | – | – | 100 | 100 | 90 | 100 | 100 | – | 100 | 2.78 | – | –
CON=Cc1cc(C)c(NC(=O)c2cc(CF)nn2-c2ncccc2Cl)c(C(=O)NC(C)(C)C)c1 [C-44] | – | – | 100 | 100 | 90 | 100 | – | – | – | – | 3.00 | –
CON=Cc1cc(C)c(NC(=O)c2cc(C(F)(F)F)nn2-c2ncccc2Cl)c(C(=O)NNC(=O)Oc2ccccc2)c1 [A-19] | – | – | 100 | – | 90 | 100 | 100 | 3.02 | 95 | – | – | –
COCC(C)NC(=O)c1cc(C=NOC)cc(C)c1NC(=O)c1cc(OC)nn1-c1ncccc1Cl (stereo not shown) [C-41] | – | – | – | 100 | 90 | 100 | – | – | – | – | 2.51 | –
CON=Cc1cc(C)c(NC(=O)c2cc(CF)nn2-c2ncccc2Cl)c(C(=O)NC(C)C2CC2)c1 (stereo not shown) [C-43] | – | – | 100 | 90 | 90 | 100 | – | – | – | – | 2.96 | –
CNC(=O)c1cc(C=NOC)cc(C)c1NC(=O)c1cc(CF)nn1-c1ncccc1Cl [C-45] | – | – | 100 | 100 | 100 | 100 | – | – | – | – | 2.14 | –
C#CCOC(=O)NN(C)C(=O)c1cc(C=NOC)cc(C)c1NC(=O)c1cc(C(F)(F)F)nn1-c1ncccc1Cl [A-29] | – | – | – | 90 | 90 | 100 | 100 | 3.16 | 95 | – | – | –

Reference: patent US9609868B2, “Alkoximino-substituted anthranilic acid diamides as pesticides” (BAYER CROPSCIENCE AKTIENGESELLSCHAFT, priority 2013, dated 2017)
